Where “and” joins values, the source holds several entries; their conditions need not be identical. Equal entries are not always repeated. Calls of active or inactive are those of the source. The rule behind the calls is not given here.

The IC50 is the concentration needed to halve the response being measured.

This test concerns the target glucose-6-phosphate dehydrogenase-6-phosphogluconolactonase (Plasmodium falciparum 3D7). The test can be described thus: PfG6PD enzyme inhibitors, kinetic NADPH readout, SAR follow-up, orthogonal assay, biochemical, kinetic NADPH detection (AID 588593). Conditions: recombinant PfG6PD-6PGL.
For `COc1cccc(/C=C2/Sc3ccc(C(=O)NCCN4CCCC4)cc3NC2=O)c1`, the IC50 was 35.3 µM.

`CN(C)CCNC(=O)c1ccc2c(c1)NC(=O)CO2`: the IC50 was > 80 µM (inactive).

As for `CN(C)CCNC(=O)c1ccc2c(c1)NC(=O)c1ccccc1O2`, the IC50 is > 80 µM (inactive).

In the case of `CCN(CC)CCNC(=O)c1ccc2c(c1)NC(=O)/C(=C/c1ccccc1)S2`, the IC50 was 18.4 µM.

As for `O=C(NCCN1CCCC1)c1ccc2c(c1)NC(=O)c1ccccc1S2`, the concentration for half-maximal inhibition (IC50) is 60.5 µM.

`O=C(Nc1nnc(S(=O)(=O)N2CCCCCC2)s1)c1ccc(F)cc1`: the IC50 was 43.9 µM.

Take `O=C1Nc2cc(C(=O)NCCN3CCCC3)ccc2S/C1=C/c1ccccc1Cl`: the IC50 is > 80 µM (inactive).

As to `COc1ccc(/C=C2/Sc3ccc(C(=O)NCCN4CCCC4)cc3NC2=O)cc1`, the IC50 was > 80 µM (inactive).

On to `Cc1ccc(CN2C(=O)c3ccccc3Sc3ccc(C(=O)NCCN(C)C)cc32)cc1`, for which the IC50 is > 80 µM (inactive).

Turning to `CCN1CCCC1CNC(=O)c1ccc2c(c1)N(Cc1ccc(C(F)(F)F)cc1)C(=O)c1ccccc1S2` (configuration not stated), the IC50 is > 80 µM (inactive).

Take `CCN1CCCC1CNC(=O)c1ccc2c(c1)NC(=O)c1ccccc1O2` (configuration not stated): the half-maximal inhibitory concentration (IC50) is 11.9 µM.

With `CCN1CCCC1CNC(=O)c1ccc2c(c1)N(Cc1ccccc1Cl)C(=O)c1ccccc1S2` (configuration not stated), the IC50 was > 80 µM (inactive).

As for `O=C(NCCN1CCCCC1)c1ccc2c(c1)NC(=O)c1ccccc1O2`, the IC50 is 31.6 µM.

As to `CCN1CCCC1CNC(=O)c1ccc2c(c1)NC(=O)/C(=C/c1cccc3ccccc13)S2` (configuration not stated), the IC50 is 4.2 µM.

As to `O=C1Nc2cc(C(=O)NCc3ccccc3)ccc2S/C1=C\c1ccccc1F`, the IC50 is > 80 µM (inactive).

For the compound `Cc1ccccc1C(=O)Nc1nnc(S(=O)(=O)N2CCCc3ccccc32)s1`, the IC50 was 46.9 µM.

Consider `CCN1CCC[C@@H]1CNC(=O)c1ccc2c(c1)NC(=O)/C(=C/c1ccccc1F)S2`, for which the IC50 was 30.8 µM.

For `Cc1ccc(C(=O)Nc2nnc(S(=O)(=O)N3CCCCCC3)s2)cc1`, the half-inhibitory concentration (IC50) is 10.7 µM.

As for `CCOc1ccc(C(=O)Nc2nnc(S(=O)(=O)N3CCCCCC3)s2)cc1`, the IC50 is 23.8 µM.

On to `CCN1CCCC1CNC(=O)c1ccc2c(c1)NC(=O)/C(=C/c1ccccc1OC)S2` (configuration not stated), for which the half-inhibitory concentration (IC50) is 11.3 µM.

As for `COc1cccc(C(=O)Nc2nnc(S(=O)(=O)N3CCCCCC3)s2)c1`, the IC50 is 31.6 µM.

Regarding `CCN1CCCC1CNC(=O)c1ccc2c(c1)NC(=O)/C(=C/c1ccccc1C)S2` (configuration not stated), the IC50 was 5.01 µM.

`Cc1cccc(C(=O)Nc2nnc(S(=O)(=O)N3CCCCCC3)s2)c1`: the IC50 is 5.79 µM.

For `CCCN(CCC)CCNC(=O)c1ccc2c(c1)NC(=O)/C(=C\c1ccc(C)cc1)S2`, the IC50 is 45.9 µM.

For the compound `O=C(Nc1nnc(S(=O)(=O)N2CCCCCC2)s1)c1ccccc1F`, the IC50 is 35.2 µM.

Consider `O=C1COc2ccc(C(=O)NCCN3CCCC3)cc2N1`, for which the IC50 was > 80 µM (inactive).

Take `O=C(Nc1nnc(S(=O)(=O)N2CCCCC2)s1)c1cccc(F)c1`: the IC50 is 34 µM.

Consider `Cc1cccc(N2CCN(CCNC(=O)c3ccc4c(c3)NC(=O)c3ccccc3S4)CC2)c1C`, for which the IC50 is 47.9 µM.

For the compound `CCC(C)N(CCNC(=O)c1ccc2c(c1)NC(=O)c1ccccc1S2)C1CCCCC1` (configuration not stated), the IC50 is 4.02 µM.

In the case of `CCN(CC)CCNC(=O)c1ccc2c(c1)N(Cc1ccc(C)cc1)C(=O)c1ccccc1S2`, the IC50 is > 80 µM (inactive).

For the compound `O=C(Nc1nnc(S(=O)(=O)N2CCCCCC2)s1)c1ccccc1`, the IC50 is 13.3 µM.

In the case of `O=C1COc2ccc(C(=O)NCCN3CCOCC3)cc2N1`, the IC50 was > 80 µM (inactive).

On to `CN(C)CCNC(=O)c1ccc2c(c1)NC(=O)/C(=C\c1cccc(Cl)c1)S2`, for which the IC50 is 43.6 µM.

Regarding `CCN1CCCC1CNC(=O)c1ccc2c(c1)NC(=O)/C(=C\c1ccccc1F)S2` (configuration not stated), the IC50 was 3.17 µM.

Turning to `CCN(CC)CCNC(=O)c1ccc2c(c1)NC(=O)/C(=C\c1ccccc1F)S2`, the concentration for half-maximal inhibition (IC50) was 9.37 µM.

Turning to `Cc1ccc(C(=O)Nc2nnc(S(=O)(=O)N3c4ccccc4CC3C)s2)cc1` (configuration not stated), the IC50 is > 80 µM (inactive).

On to `CCN1CCCC1CNC(=O)c1ccc2c(c1)N(Cc1cccc(F)c1)C(=O)c1ccccc1S2` (configuration not stated), for which the IC50 is > 80 µM (inactive).

As to `COc1ccc(C(=O)Nc2nnc(S(=O)(=O)N3CCCCCC3)s2)cc1`, the IC50 is 47.2 µM.

Turning to `O=C(NCCN1CCOCC1)c1ccc2c(c1)NC(=O)c1ccccc1O2`, the IC50 is > 80 µM (inactive).

Take `O=C(Nc1nnc(S(=O)(=O)N2CCCc3ccccc32)s1)c1cccc(F)c1`: the IC50 was 15.9 µM.

As to `CN1CCCC1CCNC(=O)c1ccc2c(c1)NC(=O)/C(=C/c1ccccc1F)S2` (configuration not stated), the half-maximal inhibitory concentration (IC50) was 45.2 µM.

As for `COc1cccc(/C=C2/Sc3ccc(C(=O)NCCN4CCCCCC4)cc3NC2=O)c1`, the IC50 is 58.5 µM.

Consider `CCN(CCNC(=O)c1ccc2c(c1)N(CC)C(=O)c1ccccc1S2)c1ccccc1`, for which the IC50 was 44.6 µM.

With `O=C(NCCN1CCCC1)c1ccc2c(c1)NC(=O)c1ccccc1O2`, the 50% inhibitory concentration (IC50) was 35.6 µM.

As to `Cc1cccc(C(=O)Nc2nnc(S(=O)(=O)N3CCCc4ccccc43)s2)c1`, the IC50 is > 80 µM (inactive).

`Cc1cccc(C(=O)Nc2nnc(S(=O)(=O)N3CCOCC3)s2)c1`: the 50% inhibitory concentration (IC50) was 24.2 µM.

As to `COc1ccccc1C(=O)Nc1nnc(S(=O)(=O)N2CCCCCC2)s1`, the IC50 was 10 µM.

Consider `O=C1Nc2cc(C(=O)NCCN3CCCCCC3)ccc2S/C1=C/c1ccccc1Cl`, for which the IC50 is > 80 µM (inactive).

Turning to `O=C1Nc2cc(C(=O)NCCN3CCOCC3)ccc2S/C1=C\c1ccccc1F`, the IC50 was > 80 µM (inactive).

Regarding `O=C1Nc2cc(C(=O)NCCN3CCCCCC3)ccc2S/C1=C/c1ccccc1F`, the IC50 is 11 µM.

`O=C(Nc1nnc(S(=O)(=O)N2CCCCCC2)s1)c1ccco1`: the IC50 was 33.3 µM.

For `Cc1cccc(/C=C2/Sc3ccc(C(=O)NCCN4CCCC4)cc3NC2=O)c1`, the half-maximal inhibitory concentration (IC50) was 8.77 µM.

For `O=C(Nc1nnc(S(=O)(=O)N2CCCCCC2)s1)c1cccc(Cl)c1`, the IC50 is 20.3 µM.

As to `COc1ccc(/C=C2/Sc3ccc(C(=O)NCCN4CCCCCC4)cc3NC2=O)cc1`, the IC50 was > 80 µM (inactive).

In the case of `CN1CCN(C(=O)c2ccc3c(c2)NC(=O)/C(=C/c2ccccc2Cl)S3)CC1`, the IC50 was > 80 µM (inactive).

On to `CCN1CCCC1CNC(=O)c1ccc2c(c1)NC(=O)CO2` (configuration not stated), for which the IC50 was 41.4 µM.

For `CCN(CC)CCNC(=O)c1ccc2c(c1)N(Cc1cc(C)ccc1C)C(=O)c1ccccc1S2`, the IC50 was > 80 µM (inactive).

As to `O=C(Nc1nnc(S(=O)(=O)N2CCCCCC2)s1)c1cccc(F)c1`, the IC50 is 18.1 µM.

As for `CCN(CC)CCNC(=O)c1ccc2c(c1)NC(=O)/C(=C\c1ccccc1Cl)S2`, the IC50 was 44.9 µM.

For the compound `CCN(CC)CCNC(=O)c1ccc2c(c1)NC(=O)/C(=C\c1ccc(OC)c(OC)c1)S2`, the half-inhibitory concentration (IC50) was 24.5 µM.

For the compound `Cc1cccc(C(=O)Nc2nnc(S(=O)(=O)N3c4ccccc4CC3C)s2)c1` (configuration not stated), the IC50 was > 80 µM (inactive).

Take `CCN1CCC[C@H]1CNC(=O)c1ccc2c(c1)NC(=O)/C(=C/c1ccccc1F)S2`: the IC50 is 9.49 µM.

For `CCN(CC)CCNC(=O)c1ccc2c(c1)NC(=O)c1ccccc1O2`, the IC50 is 62.3 µM.

Take `CCN(CC)CCNC(=O)c1ccc2c(c1)NC(=O)CO2`: the IC50 was > 80 µM (inactive).

`COc1ccc(/C=C2/Sc3ccc(C(=O)NCCN(C)C)cc3NC2=O)cc1`: the IC50 was > 80 µM (inactive).

For the compound `CCN1CCCC1CNC(=O)c1ccc2c(c1)NC(=O)/C(=C\c1ccccc1Cl)S2` (configuration not stated), the IC50 was 3.32 µM.

With `O=C(Nc1nnc(S(=O)(=O)N2CCCCCC2)s1)C1CCCCC1`, the IC50 is 38.5 µM.

With `CCN(CC)CCNC(=O)c1ccc2c(c1)N(Cc1ccccc1Cl)C(=O)c1ccccc1S2`, the IC50 is > 80 µM (inactive).

Turning to `O=C(Nc1nnc(S(=O)(=O)N2CCCCCC2)s1)c1cccc(Br)c1`, the IC50 is 7.09 µM.

For the compound `Cc1ccc(C(=O)Nc2nnc(S(=O)(=O)N3CCCc4ccccc43)s2)cc1`, the IC50 is 54.6 µM.

For `CC1Cc2ccccc2N1S(=O)(=O)c1nnc(NC(=O)c2cccc(Br)c2)s1` (configuration not stated), the IC50 was > 80 µM (inactive).

As for `Cc1cccc(C(=O)Nc2nnc(S(=O)(=O)N3CCC(C)CC3)s2)c1`, the IC50 was 9.09 µM.

For `CCN(CC)CCNC(=O)c1ccc2c(c1)NC(=O)/C(=C\c1ccc(OC)cc1)S2`, the IC50 was 12.5 µM.

Turning to `CCN1CCCC1CNC(=O)c1ccc2c(c1)N(Cc1ccccc1F)C(=O)c1ccccc1S2` (configuration not stated), the IC50 is > 80 µM (inactive).

In the case of `CCN(CC)CCNC(=O)c1ccc2c(c1)NC(=O)c1ccccc1S2`, the IC50 is 41.8 µM and 57.4 µM.

As to `CCN(CCNC(=O)c1ccc2c(c1)NC(=O)c1ccccc1S2)c1ccccc1`, the IC50 was > 80 µM (inactive).

With `CN(CCNC(=O)c1ccc2c(c1)NC(=O)c1ccccc1S2)C1CCCCC1`, the IC50 is 28.6 µM.

Consider `O=C(Nc1nnc(S(=O)(=O)N2CCOCC2)s1)c1cccc(F)c1`, for which the IC50 is 51.9 µM.

For the compound `COc1ccc(C(=O)Nc2nnc(S(=O)(=O)N3CCCCCC3)s2)cc1OC`, the IC50 was 5.48 µM.

Take `O=C1COc2ccc(C(=O)NCCN3CCCCC3)cc2N1`: the IC50 was 77 µM.

For the compound `CCN1CCCC1CNC(=O)c1ccc2c(c1)NC(=O)c1ccccc1S2` (configuration not stated), the IC50 was 8.01 µM and 6.42 µM.

On to `Cc1ccccc1C(=O)Nc1nnc(S(=O)(=O)N2CCCCCC2)s1`, for which the IC50 is 11.6 µM.

In the case of `O=C1Nc2cc(C(=O)NCCN3CCCCC3)ccc2S/C1=C\c1ccccc1F`, the IC50 is 24 µM.

Turning to `CCN(CCNC(=O)c1ccc2c(c1)N(Cc1cc(C)ccc1C)C(=O)c1ccccc1S2)c1ccccc1`, the IC50 is 48.2 µM.

As to `CCCN(CCC)CCNC(=O)c1ccc2c(c1)NC(=O)/C(=C/c1ccccc1)S2`, the concentration for half-maximal inhibition (IC50) is 27.2 µM.

Turning to `CCN1CCCC1CNC(=O)c1ccc2c(c1)NC(=O)CS2` (configuration not stated), the IC50 was > 80 µM (inactive).

With `CC1Cc2ccccc2N1S(=O)(=O)c1nnc(NC(=O)c2cccc(F)c2)s1` (configuration not stated), the IC50 was 30.8 µM.

Values taken from PubChem BioAssay AID588593 (Sanford-Burnham Center for Chemical Genomics, 2011).
